In ChEMBL document CHEMBL1152006, “Pharmacological profile and chemical synthesis of SR 48968, a non-peptide antagonist of the neurokinin A (NK2) receptor” (Bioorg Med Chem Lett, 1993):

How the values were obtained:
[1] = system: Cavia porcellus; assay: The compound was evaluated for the inhibition of bronchoconstriction in guinea pig at intraduodenal dose of 0.5 mg/Kg; type: functional; conditions: Lung
[2] = system: Cavia porcellus; assay: The compound was evaluated for the inhibition of bronchoconstriction in guinea pig at intravenous dose of 0.2 mg/Kg; type: functional; conditions: Lung
[3] = molecular target: T1, Substance-K receptor (Rattus norvegicus, UniProt P16610); assay: Inhibition of [125I]NKA binding to neurokinin NK2 receptor from rat duodenum membranes; type: cell membranes, Membrane
T1 sequence (P16610 whole entry): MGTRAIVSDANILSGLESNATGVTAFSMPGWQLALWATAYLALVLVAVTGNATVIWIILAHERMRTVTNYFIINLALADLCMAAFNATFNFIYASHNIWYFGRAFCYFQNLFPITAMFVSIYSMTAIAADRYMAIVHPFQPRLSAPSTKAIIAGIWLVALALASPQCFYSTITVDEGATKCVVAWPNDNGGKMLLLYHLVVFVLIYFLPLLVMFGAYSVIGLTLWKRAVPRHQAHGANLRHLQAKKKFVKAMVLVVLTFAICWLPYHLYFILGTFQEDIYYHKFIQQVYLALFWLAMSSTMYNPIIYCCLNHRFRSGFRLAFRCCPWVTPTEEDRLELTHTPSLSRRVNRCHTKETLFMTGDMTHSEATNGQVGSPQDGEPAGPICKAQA

[4] = species: Oryctolagus cuniculus; assay: The compound was evaluated for the inhibition of [Nle10]-NKA(4-10)-induced contraction of the rabbit pulmonary artery; type: functional; conditions: read-out: pA2 (converted)
[5] = system: Cavia porcellus; assay: The compound was evaluated for its effect on bronchoconstriction induced by [Sar9,Met(O2)11]-SP(5 ug/kg, i.v.) in the guinea pig 15 min after administration; type: functional
[6] = system: Cavia porcellus; assay: The compound was evaluated for its effect on bronchoconstriction induced by [Sar9,Met(O2)11]-SP(5 ug/kg, i.v.) in the guinea pig 60 min after administration; type: functional
[7] = system: Cavia porcellus; assay: The compound was evaluated for its effect on bronchoconstriction induced by acetylcholine(60 ug/kg, i.v.) in the guinea pig 15 min after administration; type: functional
[8] = system: Cavia porcellus; assay: The compound was evaluated for its effect on bronchoconstriction induced by acetylcholine(60 ug/kg, i.v.) in the guinea pig 60 min after administration; type: functional
[9] = system: Cavia porcellus; assay: The compound was evaluated for its effect on bronchoconstriction induced by histamine(10 ug/kg, i.v.) in the guinea pig 15 min after administration; type: functional
[10] = system: Cavia porcellus; assay: The compound was evaluated for its effect on bronchoconstriction induced by histamine(10 ug/kg, i.v.) in the guinea pig 60 min after administration; type: functional
[11] = system: Cavia porcellus; assay: The compound was evaluated for its effect on bronchoconstriction induced by serotonin(10 ug/kg, i.v.) in the guinea pig 15 min after administration; type: functional
[12] = system: Cavia porcellus; assay: The compound was evaluated for its effect on bronchoconstriction induced by serotonin(10 ug/kg, i.v.) in the guinea pig 60 min after administration; type: functional
[13] = system: Cavia porcellus; assay: Tested in vivo to antagonize the NKA-induced bronchoconstriction in guinea pig by intraduodenal route; type: functional; conditions: read-out: ID50 (the source's name)
[14] = system: Cavia porcellus; assay: Tested in vivo to antagonize the NKA-induced bronchoconstriction in guinea pig intravenously; type: functional; conditions: iv, read-out: ID50 (the source's name)
[15] = molecular target: T2, Substance-K receptor (Mesocricetus auratus, UniProt P51144); assay: The compound was evaluated for the inhibition of [125I]NKA binding to neurokinin NK2 receptor from hamster urinary bladder membranes
T2 sequence (P51144 whole entry): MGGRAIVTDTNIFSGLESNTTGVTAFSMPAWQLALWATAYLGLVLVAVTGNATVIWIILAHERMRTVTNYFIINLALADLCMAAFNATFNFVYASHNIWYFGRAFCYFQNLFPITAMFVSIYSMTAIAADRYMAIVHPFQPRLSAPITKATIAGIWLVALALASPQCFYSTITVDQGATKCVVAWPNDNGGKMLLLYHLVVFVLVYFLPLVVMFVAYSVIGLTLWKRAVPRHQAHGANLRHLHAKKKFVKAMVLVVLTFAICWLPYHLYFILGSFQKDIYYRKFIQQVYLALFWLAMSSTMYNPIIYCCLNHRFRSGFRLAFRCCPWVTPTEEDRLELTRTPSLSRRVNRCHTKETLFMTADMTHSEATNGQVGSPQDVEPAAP

[16] = molecular target: T1, Substance-K receptor; assay: The compound was evaluated for the inhibition of [125I]NKA binding to Tachykinin receptor 2 from rat duodenum membranes; type: cell membranes, Membrane

Structure (SMILES) | Ki [3] [pM] | inhibition in vivo at 0.5 mg/kg [1] [%] | inhibition in vivo at 0.2 mg/kg [2] [%] | Kb [4] [pM] | further results
CN(CC(CCN1CCC(O)(c2ccccc2)CC1)c1ccc(Cl)c(Cl)c1)C(=O)c1cccs1 (stereo not drawn) | 1400 | 73 | 93 | 67.6 | 
CC(=O)OC1(c2ccccc2)CCN(CCC(CN(C)C(=O)c2ccccc2)c2ccc(Cl)c(Cl)c2)CC1 (stereo not drawn) | 300 | 36 | 98 |  | 
CN(CC(CCN1CCC(O)(c2ccccc2)CC1)c1ccc(Cl)c(Cl)c1)C(=O)c1ccsc1 (stereo not drawn) | 1000 |  | 77 | 229 | 
CCN(CC(CCN1CCC(OC(C)=O)(c2ccccc2)CC1)c1ccc(Cl)c(Cl)c1)C(=O)c1cccs1 (stereo not drawn) | 300 | 34 | 97 | 447 | 
CN(CC(CCN1CCC(O)(c2ccccc2)CC1)c1ccc(Cl)c(Cl)c1)C(=O)c1ccccc1 (stereo not drawn) | 1000 |  | 93 | 182 | 
CC(=O)NC1(c2ccccc2)CCN(CCC(CN(C)C(=O)c2ccccc2)c2ccc(Cl)c(Cl)c2)CC1 (single isomer, unassigned) [SAREDUTANT] | 500 | 100 | 100 | 33.1 | Volume of air [5]: 4.4 mL; Volume of air [6]: 4.2 mL; Volume of air [7]: 2.8 mL; Volume of air [8]: 3.2 mL; Volume of air [9]: 3.2 mL; Volume of air [10]: 3.9 mL; Volume of air [11]: 4.5 mL; Volume of air [12]: 4.7 mL; ED50 [13]: 0.35 mg/kg; ED50 [14]: 0.037 mg/kg; Ki [15]: 1200 pM
CC(=O)NC1(c2ccccc2)CCN(CC[C@H](CN(C)C(=O)c2ccccc2)c2ccc(Cl)c(Cl)c2)CC1 [SAREDUTANT] |  |  |  |  | Ki [16]: 945000 pM

Now from value to compound, other results behind:

Ki [3] [pM] | Structure (SMILES) | inhibition in vivo at 0.5 mg/kg [1] [%] | inhibition in vivo at 0.2 mg/kg [2] [%] | Kb [4] [pM] | further results
900 | CCOC1(c2ccccc2)CCN(CCC(CN(C)C(=O)c2ccccc2)c2ccc(Cl)c(Cl)c2)CC1 (stereo not drawn) |  | 40 | 170 | 
1500 | CN(CC(CCN1CCC(O)(c2ccccc2)CC1)c1ccc(Cl)c(Cl)c1)C(=O)c1cccc2ccccc12 (stereo not drawn) |  | 0 | 2340 | 
> 100000 | CC(=O)NC1(c2ccccc2)CCN(CCC(CNC(=O)c2ccccc2)c2ccc(Cl)c(Cl)c2)CC1 (stereo not drawn) |  |  |  | 
23000 | CC(=O)NCC1(c2ccccc2)CCN(CCC(CN(C)C(=O)c2ccccc2)c2ccc(Cl)c(Cl)c2)CC1 (stereo not drawn) |  |  |  | 
50000 | CN(CC(CCN1CCC(CO)(c2ccccc2)CC1)c1ccc(Cl)c(Cl)c1)C(=O)c1ccccc1 (stereo not drawn) |  |  |  | 
> 100000 | CN(CC(CCN1CCC(c2ccccc2)CC1)c1ccc(Cl)c(Cl)c1)C(=O)c1ccccc1 (stereo not drawn) |  |  |  | 
